In US8513181B2, “Substances and compositions for enhancing DNA repair and methods of use” (Cornell University, priority 2008, dated 2013):

How the values were obtained:
[1] = tested on: primary Cul4a f/f and Cul4a−/− MEF cells; assay: Western blotting of DDB2, p21 and XPC steady-state protein levels in MEFs after lentiviral shRNA; type: cell-based, mouse; settings: Western blot
Protocol: (§1) MEFs were isolated from embryonic day (E) 13.5 wild-type or Cul4a knockout embryos. shRNAs for murine Cul4b and Pcid2 as well as scrambled controls were subcloned into the FUGW lentiviral vector and expressed under the U6 promoter as described in Example 1. Recombinant shCul4b and shPcid2 lentiviruses were generated for infection of primary Cu/4a^f/f and Cul4a^−/− MEF cells. shRNA-containing FUGW lentivirus were added onto Cu/4a^f/f and Cul4a^−/− MEFs every 12 hours for 36 hours. The cells were harvested 48 hours post-infection, and Western blotting was performed on MEF extracts using antibodies against CUL4A (C-19, Santa Cruz Biotechnology), CUL-4B, DDB2 (Cell Signaling Technology, Danvers, Mass.), p21 (Santa Cruz Biotechnology), XPC, histone H3, and β-actin (Sigma, St. Louis, Mo.).

mouse CUL4B = assay: Western blotting of MEF extracts after lentiviral shRNA infection (knockdown efficiency); type: cell-based; settings: early passage (P3) primary MEFs, harvested 48 hours post-infection
Excerpt: (§2) Short hairpin (sh) RNAs for gene targeting were as follows: murine sh-Cul4b was 5′-[…]-3′ (SEQ ID NO: 9); murine sh-Pcid2-1 was 5′-[…]-3′ (SEQ ID NO: 10); murine sh-Pcid2-2 was 5′-[…]-3′ (SEQ ID NO: 11); murine sh-p21 was 5′-[…]-3′ (SEQ ID NO: 12); scrambled sh-Cul4b was 5′-[…]-3′ (SEQ ID NO: 13); and human sh-Cul4a was 5′-GAAGCTGGTCATCAAGAAC-3′ (SEQ ID NO: 14). shRNAs were subcloned into the FUGW lentiviral vector and expressed under the U6 promoter (Sui and Shi, Methods Mol. Biol., 309: 205-218 (2005)). Recombinant lentiviruses were generated for infection of MEFs or HCT116 cells.
as §1

Cul4a−/− MEFs = assay: BrdU incorporation and cell viability of Cul4a−/− MEFs after Cul4b silencing; type: cell-based, mouse; settings: silencing of Cul4b in Cul4a−/− MEFs
Excerpt: FIG. 3A is a bar graph depicting the percentage of control (f/f-4a) and Cul4a knockout (ko-4a) MEFs infected with a lentivirus encoding GFP and either short hairpin (sh)-4b or scrambled (scm)-4b, at the indicated time point, as determined by FACS. FIG. 3B is a bar graph depicting BrdU incorporation into the MEFs described in FIG. 3A, as determined by counting BrdU^+ cells in microscopic fields.
as §2

[2] = tested on: UV-induced CPDs and 6-4PPs in primary MEFs; assay: GGR ELISA assay of CPD and 6-4PP removal in MEFs; type: cell-based, mouse
XPC in HCT116 cells = assay: XPC chromatin binding and ubiquitination after UV irradiation (immunoblot of chromatin-bound extracts); type: cell-based, human; settings: HCT116, lentiviral shRNA 48 hours
Protocol: XPC ubiquitination was determined in HCT116 cells following UV irradiation. HCT116 cells were infected with lentiviral shCul4a or control FUGW for 48 hours, UV irradiated at 10 J/m^2 and harvested at 0 hr, 0.5 hr, 1 hr, and 2 hr post-UV. The chromatin-bound extracts were prepared and subjected to immunoblotting.

HCT116 cells = assay: CPD repair (NER activity) in UV-irradiated HCT116 cells infected with adenovirus; type: cell-based, human; settings: HCT116, 10 J/m^2 UV-C, 0-24 hr
Protocol: The GGR ELISA assay of CPD and 6-4PP removal was performed as previously described (Chen et al., 2006) in primary Cul4a^−/− (ko-4-a scm-4b), Cu/4b^k/d (f/f-4a sh-4b), and control Cu/4a^f/f (f/f-4a scm-4-b) MEFs (FIG. 7B, ko, knockout; k/d, knockdown; scm, scramble). Briefly, exponentially growing MEF cells were irradiated with 10 J/m^2 UV-C (254 nm) and either harvested immediately (0 hr) or allowed to repair for the duration indicated in FIG. 7B. Genomic DNA was isolated and quantified via liquid scintillation and fluorometric measurements of Hoechst-stained DNA. Denatured genomic DNA was fixed to each well of protamine sulfate-coated 96-well plates and sequentially incubated with monoclonal antibody specific for 6-4PPs (64M-2, 1:5000) or CPDs (1:5000), biotin-F(ab′)2 fragment of anti-mouse IgG (H+L) (1:2000, Zymed) and peroxidase-Streptavidin (1:10,000, Zymed) for 30 min at 37° C. The wells were washed with PBS-Tween and 0.1 M citrate-phosphate buffer and incubated with the substrate solution (0.1 M citrate-phosphate buffer, 0.1 mg/mL tetramethylbenzidine [TMB], 0.03% H2O2) at room temperature for 30 min. […] A450 was determined using a plate reader (Molecular Devices).
HCT116 cells were infected with a control adenovirus or an adenovirus comprising a gene encoding a DN-CUL4 (SEQ ID NO: 18). […] The rate of NER activity was then calculated as the rate of CPD repair as a function of time.

Molecule: shCul4b: murine short hairpin RNA targeting Cul4b, 5′-GTAGTAACGAGAGAGAAGACT-3′ (SEQ ID NO: 9), in FUGW lentiviral vector (listed as Mus musculus)
- effect on XPC accumulation ([1]; Cul4b knockdown): marginal effect
- effect on p21 protein accumulation ([1]; Cul4b silencing by RNAi): little effect
- effect on DDB2 levels ([1]; lentiviral shRNA): only a marginal effect
- reduction of mouse CUL4B protein (mouse CUL4B): over 93%
- BrdU incorporation (Cul4a−/− MEFs): dramatic reduction
- cell viability (Cul4a−/− MEFs): loss of cell viability
- effect on GGR efficiency (CPD and 6-4PP removal) ([2]; Cul4b knockdown in Cul4a f/f MEFs, 10 J/m^2 UV-C): no discernable effect

Molecule: sh-p21: murine short hairpin RNA targeting p21, 5′-GAGAACGGTGGAACTTTGACTT-3′ (SEQ ID NO: 12), lentiviral (expressed or natural sequence; listed as Mus musculus)
- reduction of NER activity in CPD removal compared to Cul4a−/− MEFs ([2]; p21 knockdown (or p21 deletion) in Cul4a−/− MEFs, 10 J/m^2 UV, 24-hour repair assay): 8-11%

Molecule: shCul4a: human short hairpin RNA targeting Cul4a, 5′-GAAGCTGGTCATCAAGAAC-3′ (SEQ ID NO: 14), in FUGW lentiviral vector (listed as Homo sapiens)
- association of XPC with chromatin (XPC in HCT116 cells; UV 10 J/m^2): increased
- XPC ubiquitination on chromatin post-UV (XPC in HCT116 cells; UV 10 J/m^2, 0-2 hr post-UV): dramatic inhibition

B1: DN-CUL4: dominant negative CUL4 fragment (SEQ ID NO: 18) expressed from an adenovirus (protein, listed as Homo sapiens)
chain: MADEAPRKGSFSALVGRTNGLTKPAALAAAPAKPGGAGGSKKLVIKNFRDRPRLPDNYTQDTWRKLHEAVRAVQSSTSIRYNLEELYQAVENLCSHKVSPMLYKQLRQACEDHVQAQILPFREDSLDSVLFLKKINTCWQDHCRQMIMIRSIFLFLDRTYVLQNSTLPSIWDMGLELFRTHIISDKMVQSKTIDGILLLIERERSGEAVDRSLLRSLLGMLSDLQVYKDSFELKFLEETNCLYAAEGQRLMQEREVPEYLNHVSKRLEEEGDRVITYLDHSTQKPLIACVEKQLL
modifications: DN-CUL4A (M1-L295)
- CPD repair compared to control adenovirus cells (HCT116 cells): occurred earlier and was more complete
